Laboratory results taken from ChEMBL document CHEMBL1127759, “Synthesis and in vitro cytotoxicity of 6-vinyluridine and related compounds” (Bioorg Med Chem Lett, 1994).

Test system: L1210
Experiment: In vitro growth inhibitory activity against mouse L1210 leukemia cells
Assay type: functional, cell-based

IC50 [µM]	SMILES
> 25	COC(=O)/C(Br)=C\c1cc(=O)[nH]c(=O)n1C1O[C@H](CO)[C@@H](O)[C@H]1O (some centres undefined)
> 30	CCOC(=O)/C(C)=C/c1cc(=O)[nH]c(=O)n1C1O[C@H](CO)[C@@H](O)[C@H]1O (some centres undefined)
4.5	C=Cc1nc(O)nc(O)c1Cl
11	C=Cc1nc(O)nc(O)c1Br
12	C=Cc1cc(=O)[nH]c(=O)n1C1O[C@H](CO)[C@@H](O)[C@H]1O (some centres undefined)
46	C/C=C\c1cc(O)nc(O)n1
3	CCOC(=O)/C(Cl)=C\c1cc(O)nc(O)n1
38	CCOC(=O)/C=C/c1cc(O)nc(O)n1
1	CCOC(=O)/C(Br)=C\c1cc(O)nc(O)n1
> 90	C/C=C/c1cc(O)nc(O)n1
> 35	CCOC(=O)/C=C/c1cc(=O)[nH]c(=O)n1C1O[C@H](CO)[C@@H](O)[C@H]1O (some centres undefined)
> 35	C/C=C/c1cc(=O)[nH]c(=O)n1C1O[C@H](CO)[C@@H](O)[C@H]1O (some centres undefined)
3	C=Cc1cc(O)nc(O)n1
2	C=Cc1nc(O)nc(O)c1I
